Test results published in ChEMBL document CHEMBL4665764, “Synthesis and Biological Evaluation of Celastrol Derivatives as Potential Immunosuppressive Agents” (J Nat Prod, 2020).

Tests used:
[1] = Cytotoxicity against BALB/c mouse T cell assessed as reduction in cell viability after 48 hrs by CCK8 assay; format: tissue-based, T cell line; conditions: BALB/c mouse T cells
[2] = Antiproliferative activity against Con A-induced BALB/c mouse T cell after 48 hrs by CCK8 assay; format: functional, tissue-based, T cell line
[3] = Selectivity index, ratio of CC50 for cytotoxicity against BALB/c mouse T cell to IC50 for antiproliferative activity against Con A-induced BALB/c mouse T cell; set-up: species or system T cell line

Row | SMILES | CC50 at 48 h [1] | IC50 [2] | Ratio CC50/IC50 [3]
1 | C#CCOC(=O)[C@]1(C)CC[C@]2(C)CC[C@]3(C)C4=C[C@@H](c5c[nH]c6cc(F)ccc56)c5c(cc(OC(C)=O)c(OC(C)=O)c5C)[C@]4(C)CC[C@@]3(C)[C@@H]2C1 | ≥ 10000 nM | ≥ 10000 nM | 
2 | CCOC(=O)[C@]1(C)CC[C@]2(C)CC[C@]3(C)C4=CC=C5C(=CC(=O)C(O)=C5C)[C@]4(C)CC[C@@]3(C)[C@@H]2C1 | 1400 nM | 820 nM | 1.3
3 | CC1=C(O)C(=O)C=C2C1=CC=C1[C@@]2(C)CC[C@@]2(C)[C@@H]3C[C@](C)(C(=O)OCCBr)CC[C@]3(C)CC[C@]12C | 1100 nM | 721 nM | 1.6
4 | COCCCOC(=O)[C@]1(C)CC[C@]2(C)CC[C@]3(C)C4=CC=C5C(=CC(=O)C(O)=C5C)[C@]4(C)CC[C@@]3(C)[C@@H]2C1 | 1700 nM | 994 nM | 1.7
5 | C#CCOC(=O)[C@]1(C)CC[C@]2(C)CC[C@]3(C)C4=CC=C5C(=CC(=O)C(O)=C5C)[C@]4(C)CC[C@@]3(C)[C@@H]2C1 | 1400 nM | 1120 nM | 1.3
6 | CCNC(=O)[C@]1(C)CC[C@]2(C)CC[C@]3(C)C4=CC=C5C(=CC(=O)C(O)=C5C)[C@]4(C)CC[C@@]3(C)[C@@H]2C1 | 1100 nM | 31 nM | 34.6
7 | CC1=C(O)C(=O)C=C2C1=CC=C1[C@@]2(C)CC[C@@]2(C)[C@@H]3C[C@](C)(C(=O)NCCN(C)C)CC[C@]3(C)CC[C@]12C | 1200 nM | 225 nM | 5.5
8 | C#CCOC(=O)[C@]1(C)CC[C@]2(C)CC[C@]3(C)C4=C[C@@H](c5c[nH]c6ccc(Cl)cc56)c5c(cc(OC(C)=O)c(OC(C)=O)c5C)[C@]4(C)CC[C@@]3(C)[C@@H]2C1 | ≥ 10000 nM | ≥ 10000 nM | 
9 | CC1=C(O)C(=O)C=C2C1=CC=C1[C@@]2(C)CC[C@@]2(C)[C@@H]3C[C@](C)(C(=O)OCc4ccccc4C)CC[C@]3(C)CC[C@]12C | 1700 nM | 1040 nM | 1.6
10 | CC1=C(O)C(=O)C=C2C1=CC=C1[C@@]2(C)CC[C@@]2(C)[C@@H]3C[C@](C)(C(=O)NCc4ccccc4)CC[C@]3(C)CC[C@]12C | 800 nM | 362 nM | 2.1
11 | CC1=C(O)C(=O)C=C2C1=CC=C1[C@@]2(C)CC[C@@]2(C)[C@@H]3C[C@](C)(C(=O)OCc4ccccc4Br)CC[C@]3(C)CC[C@]12C | 1800 nM | 1550 nM | 1.1
12 | C#CCOC(=O)[C@]1(C)CC[C@]2(C)CC[C@]3(C)C4=C[C@@H](c5c[nH]c6ccc(OC)cc56)c5c(cc(OC(C)=O)c(OC(C)=O)c5C)[C@]4(C)CC[C@@]3(C)[C@@H]2C1 | ≥ 10000 nM | ≥ 10000 nM | 
13 | COC(=O)[C@]1(C)CC[C@]2(C)CC[C@]3(C)C4=CC=C5C(=CC(=O)C(O)=C5C)[C@]4(C)CC[C@@]3(C)[C@@H]2C1 [PRISTIMERIN] | 2400 nM | 1200 nM | 2
14 | CC1=C(O)C(=O)C=C2C1=CC=C1[C@@]2(C)CC[C@@]2(C)[C@@H]3C[C@](C)(C(=O)N4CCCC4)CC[C@]3(C)CC[C@]12C | 1900 nM | 323 nM | 3.4
15 | CCCNC(=O)[C@]1(C)CC[C@]2(C)CC[C@]3(C)C4=CC=C5C(=CC(=O)C(O)=C5C)[C@]4(C)CC[C@@]3(C)[C@@H]2C1 | 1100 nM | 64 nM | 16.5
16 | CC1=C(O)C(=O)C=C2C1=CC=C1[C@@]2(C)CC[C@@]2(C)[C@@H]3C[C@](C)(C(=O)OCCCl)CC[C@]3(C)CC[C@]12C | 1100 nM | 771 nM | 1.4
17 | CC1=C(O)C(=O)C=C2C1=CC=C1[C@@]2(C)CC[C@@]2(C)[C@@H]3C[C@](C)(C(=O)OCCC(C)C)CC[C@]3(C)CC[C@]12C | 1500 nM | 1090 nM | 1.4
18 | CC1=C(O)C(=O)C=C2C1=CC=C1[C@@]2(C)CC[C@@]2(C)[C@@H]3C[C@](C)(C(=O)OCc4cccc(Br)c4)CC[C@]3(C)CC[C@]12C | 1800 nM | 1070 nM | 1.7
19 | CC1=C(O)C(=O)C=C2C1=CC=C1[C@@]2(C)CC[C@@]2(C)[C@@H]3C[C@](C)(C(=O)NC(C)C)CC[C@]3(C)CC[C@]12C | 800 nM | 83 nM | 6.9
20 | CC1=C(O)C(=O)C=C2C1=CC=C1[C@@]2(C)CC[C@@]2(C)[C@@H]3C[C@](C)(C(=O)NCc4cccc(C)c4)CC[C@]3(C)CC[C@]12C | 1000 nM | 294 nM | 3.4
21 | COC(=O)[C@H](Cc1ccc(O)cc1)NC(=O)[C@]1(C)CC[C@]2(C)CC[C@]3(C)C4=CC=C5C(=CC(=O)C(O)=C5C)[C@]4(C)CC[C@@]3(C)[C@@H]2C1 | 1400 nM | 205 nM | 6.9

Row | SMILES | CC50 at 48 h [1] | IC50 [2] | Ratio CC50/IC50 [3]
22 | CC1=C(O)C(=O)C=C2C1=CC=C1[C@@]2(C)CC[C@@]2(C)[C@@H]3C[C@](C)(C(=O)OCc4ccccc4)CC[C@]3(C)CC[C@]12C | 1100 nM | 1060 nM | 1
23 | CC1=C(O)C(=O)C=C2C1=CC=C1[C@@]2(C)CC[C@@]2(C)[C@@H]3C[C@](C)(C(=O)OCc4ccc(F)cc4)CC[C@]3(C)CC[C@]12C | 2000 nM | 1460 nM | 1.4
24 | CC1=C(O)C(=O)C=C2C1=CC=C1[C@@]2(C)CC[C@@]2(C)[C@@H]3C[C@](C)(C(=O)OCc4ccc(C(F)(F)F)cc4)CC[C@]3(C)CC[C@]12C | 6700 nM | 4870 nM | 1.4
25 | CC1=C(O)C(=O)C=C2C1=CC=C1[C@@]2(C)CC[C@@]2(C)[C@@H]3C[C@](C)(C(=O)OCc4cccc(C)c4)CC[C@]3(C)CC[C@]12C | 1900 nM | 1600 nM | 
26 | C#CCOC(=O)[C@]1(C)CC[C@]2(C)CC[C@]3(C)C4=C[C@@H](c5c[nH]c6c(C)cccc56)c5c(cc(OC(C)=O)c(OC(C)=O)c5C)[C@]4(C)CC[C@@]3(C)[C@@H]2C1 | ≥ 10000 nM | ≥ 10000 nM | 
27 | CCCCOC(=O)[C@]1(C)CC[C@]2(C)CC[C@]3(C)C4=CC=C5C(=CC(=O)C(O)=C5C)[C@]4(C)CC[C@@]3(C)[C@@H]2C1 | 900 nM | 739 nM | 1.2
28 | C#CCOC(=O)[C@]1(C)CC[C@]2(C)CC[C@]3(C)C4=C[C@@H](c5c[nH]c6cc(OC)ccc56)c5c(cc(OC(C)=O)c(OC(C)=O)c5C)[C@]4(C)CC[C@@]3(C)[C@@H]2C1 | 3000 nM | ≥ 10000 nM | 
29 | CC1=C(O)C(=O)C=C2C1=CC=C1[C@@]2(C)CC[C@@]2(C)[C@@H]3C[C@](C)(C(=O)NCc4ccccc4C)CC[C@]3(C)CC[C@]12C | 1100 nM | 312 nM | 3.6
30 | C#CCOC(=O)[C@]1(C)CC[C@]2(C)CC[C@]3(C)C4=C[C@@H](c5c[nH]c6ccc(Br)cc56)c5c(cc(OC(C)=O)c(OC(C)=O)c5C)[C@]4(C)CC[C@@]3(C)[C@@H]2C1 | ≥ 10000 nM | ≥ 10000 nM | 
31 | C=CCOC(=O)[C@]1(C)CC[C@]2(C)CC[C@]3(C)C4=CC=C5C(=CC(=O)C(O)=C5C)[C@]4(C)CC[C@@]3(C)[C@@H]2C1 | 1300 nM | 1180 nM | 1.1
32 | CC1=C(O)C(=O)C=C2C1=CC=C1[C@@]2(C)CC[C@@]2(C)[C@@H]3C[C@](C)(C(=O)On4nnc5ccccc54)CC[C@]3(C)CC[C@]12C | 15100 nM | 1880 nM | 8.1
33 | COCCOC(=O)[C@]1(C)CC[C@]2(C)CC[C@]3(C)C4=CC=C5C(=CC(=O)C(O)=C5C)[C@]4(C)CC[C@@]3(C)[C@@H]2C1 | 1300 nM | 454 nM | 2.8
34 | CCCCNC(=O)[C@]1(C)CC[C@]2(C)CC[C@]3(C)C4=CC=C5C(=CC(=O)C(O)=C5C)[C@]4(C)CC[C@@]3(C)[C@@H]2C1 | 1200 nM | 63 nM | 19.3
35 | CCCOC(=O)[C@]1(C)CC[C@]2(C)CC[C@]3(C)C4=CC=C5C(=CC(=O)C(O)=C5C)[C@]4(C)CC[C@@]3(C)[C@@H]2C1 | 1200 nM | 924 nM | 1.3
36 | C#CCOC(=O)[C@]1(C)CC[C@]2(C)CC[C@]3(C)C4=C[C@@H](c5c[nH]c6cc(Cl)ccc56)c5c(cc(OC(C)=O)c(OC(C)=O)c5C)[C@]4(C)CC[C@@]3(C)[C@@H]2C1 | 4100 nM | ≥ 10000 nM | 
37 | C#CCOC(=O)[C@]1(C)CC[C@]2(C)CC[C@]3(C)C4=C[C@@H](c5c[nH]c6ccccc56)c5c(cc(OC(C)=O)c(OC(C)=O)c5C)[C@]4(C)CC[C@@]3(C)[C@@H]2C1 | ≥ 10000 nM | ≥ 10000 nM | 
38 | CC1=C(O)C(=O)C=C2C1=CC=C1[C@@]2(C)CC[C@@]2(C)[C@@H]3C[C@](C)(C(=O)O)CC[C@]3(C)CC[C@]12C [CELASTROL] | 100 nM | 83 nM | 1.5
39 | C#CCOC(=O)[C@]1(C)CC[C@]2(C)CC[C@]3(C)C4=C[C@@H](c5c[nH]c6ccc(F)cc56)c5c(cc(OC(C)=O)c(OC(C)=O)c5C)[C@]4(C)CC[C@@]3(C)[C@@H]2C1 | 5600 nM | ≥ 10000 nM | 
40 | C#CCNC(=O)[C@]1(C)CC[C@]2(C)CC[C@]3(C)C4=CC=C5C(=CC(=O)C(O)=C5C)[C@]4(C)CC[C@@]3(C)[C@@H]2C1 | 1400 nM | 112 nM | 16.4
41 | C#CCOC(=O)[C@]1(C)CC[C@]2(C)CC[C@]3(C)C4=C[C@@H](c5c[nH]c6ccc(C)cc56)c5c(cc(OC(C)=O)c(OC(C)=O)c5C)[C@]4(C)CC[C@@]3(C)[C@@H]2C1 | ≥ 10000 nM | ≥ 10000 nM | 
42 | CC1=C(O)C(=O)C=C2C1=CC=C1[C@@]2(C)CC[C@@]2(C)[C@@H]3C[C@](C)(C(=O)OCC4CCCCC4)CC[C@]3(C)CC[C@]12C | 1300 nM | 1260 nM | 1
